{"source": "patent US20160331754A1", "about": "“THERAPIES FOR TREATING CANCERS” (GILEAD SCIENCES, INC., priority 2014, published 2016)", "key": {"p-AKT Ser473 [1]": {"tested_on": "p-AKT Ser473", "test": "Flow cytometry, basal AKT phosphorylation in CD34+ progenitor cells from MF patients", "format": "cell-based, human", "conditions": "for effect on p-AKT in MF progenitor cells: basal and TPO-treated, dose dependent", "method": "(§1) PBMCs were isolated from whole blood of myelofibrosis (MF) patients who had not received treatments (i.e. naïve patients) or received ruxolitinib (i.e. rux-treated patients). The cells were treated with 0.02, 0.2, or 2.0 μM of Compound B or vehicle (0.1% DMSO in 0.1% FBS/RPMI) for 2 hours at 37° C. The cells were then fixed, permeabilized, and stained for FACS analysis. Antibodies specific to p-AKT Ser473 and pS6RP Ser235/236 were used to detect AKT phosphorylation (p-AKT) and S6RP phosphorylation (p-S6RP) in CD34^+/CD3^−/CD14^−/CD19/CD66^− (BD Biosciences) gated cells using flow cytometry. The percentage of basal (i.e. untreated with TPO) AKT and S6RP phosphorylation were normalized to vehicle control. A two-tailed paired t-test (GraphPad Prism) was used to calculate p-values. Values of p<0.05 were considered significant.\n(§2) Similar studies were conducted with PI3K inhibitors Compounds C and D. PBMC from MF patients had received ruxolitinib (rux) and MF patient had received Compound A. The cells were treated with Compounds C or D at 0, 20.0, 200.0, 2000.0 nM for 2 hours at 37° C. Cells were treated with TPO for 10 minutes. The percentage of basal p-AKT and p-S6RP levels were normalized to vehicle control and those of TPO-treated were normalized to TPO-treated vehicle control. The PI3Kδ inhibitors Compound C is referred by the chemical names of (S)-2-(1-((9H-purin-6-yl)amino)ethyl)-6-fluoro-3-phenylquinazolin-4(3H)-one."}, "pS6RP Ser235/236 [2]": {"tested_on": "pS6RP Ser235/236", "test": "Flow cytometry, basal S6RP phosphorylation in CD34+ progenitor cells from MF patients", "format": "cell-based, human", "conditions": "for effect on p-S6RP in MF progenitor cells: basal and TPO-treated, dose dependent", "method": "as §1, §2"}, "p-AKT Ser473 [3]": {"tested_on": "p-AKT Ser473", "test": "Flow cytometry, TPO-activated AKT phosphorylation in CD34+ progenitor cells from MF patients", "format": "cell-based, human", "method": "as §1\n(§3) Also, PBMC cells from naïve or ruxolitinib treated patients were isolated and treated with Compound B and with TPO as described above. The percentage of TPO-activated AKT and S6RP phosphorylation were normalized to those of TPO-treated vehicle (“no TPO” values in Table 4). […] Also, the inhibition to PI3K signaling was dose-dependent to Compound B.\nas §2"}, "pS6RP Ser235/236 [4]": {"tested_on": "pS6RP Ser235/236", "test": "Flow cytometry, TPO-activated S6RP phosphorylation in CD34+ progenitor cells from MF patients", "format": "cell-based, human", "method": "as §1, §3, §2"}, "[5]": {"conditions": "administered once a day; cited from earlier work"}, "Ri-1 DLBCL cells": {"tested_on": "Ri-1 DLBCL cells", "test": "Cell death assay (Annexin V/7AAD) in Ri-1 DLBCL cells", "format": "cell-based", "conditions": "0 nM Compound B, 3 days", "method": "(§4) Further, whole blood (WB) autologous B-cell depletion and cell-death induction assays were conducted as described in Mossner et al., Blood 115:4393-402, 2010. For cell death assay: Ri-1 DLBCL cells were seeded at 15,000 cells/well in 96-well plates. Cells were preincubated with Compound B or DMSO for 1 hour before the addition of antibody. Plates were incubated at 37° C. in a humidified CO2 chamber for 3 days. Cells were washed once with PBS and treated with Accutase for 15 minutes before being stained with Guava Nexin® reagent and analyzed on the Guava EasyCyte flow cytometer (Merck Millipore).\nAfter 3 days of incubation, cell death was assessed by Annexin V/7AAD staining."}, "WIL2-S": {"tested_on": "WIL2-S", "test": "ADCC LDH release assay, purified NK cells against WIL2-S target cells", "format": "cell-based, human", "conditions": "for Percentage of ADCC, Palivizumab ADCC: Palivizumab (isotype control) 10 μg/mL; for Percentage of ADCC, obinutuzumab ADCC: obinutuzumab 10 μg/mL"}, "CLL": {"tested_on": "CLL", "conditions": "patients with recurrent CLL; cited from earlier work"}, "autologous B cells": {"tested_on": "autologous B cells", "test": "Whole blood (WB) autologous B-cell depletion assay", "format": "cell-based", "method": "as §4\nThe percentage of deplete autologous B cells in a whole blood assay may represent the antibody potency."}, "[6]": {"conditions": "20 nM, Compound A-treated Cells"}, "[7]": {"conditions": "200 nM, Compound A-treated Cells"}, "[8]": {"conditions": "2000 nM, Compound A-treated Cells"}}, "note": "Where “and” joins values, the source holds several entries; their conditions need not be identical. Equal values may be shown once."}
{"molecule": "C[C@H](Nc1ncnc2[nH]cnc12)c1nc2ccc(F)cc2c(=O)n1-c1ccccc1", "note": "[Compound C, (S)-2-(1-((9H-purin-6-yl)amino)ethyl)-6-fluoro-3-phenylquinazolin-4(3H)-one]", "values": [{"measurement": "percentage of pAKT, Basal", "setting": "p-AKT Ser473 [1]; 20 nM 2 h, Rux-treated Cells, vehicle=100", "result": 88, "unit": "%"}, {"measurement": "percentage of pAKT, Basal", "setting": "p-AKT Ser473 [1]; [6]", "result": 89, "unit": "%"}, {"measurement": "percentage of pAKT, Basal", "setting": "p-AKT Ser473 [1]; [7]", "result": 82, "unit": "%"}, {"measurement": "percentage of pAKT, Basal", "setting": "p-AKT Ser473 [1]; 200 nM, Rux-treated Cells", "result": 90, "unit": "%"}, {"measurement": "percentage of pAKT, Basal", "setting": "p-AKT Ser473 [1]; [8]", "result": 75, "unit": "%"}, {"measurement": "percentage of pAKT, Basal", "setting": "p-AKT Ser473 [1]; 2000 nM, Rux-treated Cells", "result": 75, "unit": "%"}, {"measurement": "effect on p-AKT in MF progenitor cells", "setting": "p-AKT Ser473 [1]", "result": "inhibited"}, {"measurement": "percentage of pS6, Basal", "setting": "pS6RP Ser235/236 [2]; [6]", "result": 82, "unit": "%"}, {"measurement": "percentage of pS6, Basal", "setting": "pS6RP Ser235/236 [2]; 20 nM, Rux-treated Cells", "result": 65, "unit": "%"}, {"measurement": "percentage of pS6, Basal", "setting": "pS6RP Ser235/236 [2]; [7]", "result": 75, "unit": "%"}, {"measurement": "percentage of pS6, Basal", "setting": "pS6RP Ser235/236 [2]; 200 nM, Rux-treated Cells", "result": 59, "unit": "%"}, {"measurement": "percentage of pS6, Basal", "setting": "pS6RP Ser235/236 [2]; [8]", "result": 53, "unit": "%"}, {"measurement": "percentage of pS6, Basal", "setting": "pS6RP Ser235/236 [2]; 2000 nM, Rux-treated Cells", "result": 43, "unit": "%"}, {"measurement": "effect on p-S6RP in MF progenitor cells", "setting": "pS6RP Ser235/236 [2]", "result": "inhibited"}, {"measurement": "percentage of pAKT, TPO", "setting": "p-AKT Ser473 [3]; [6]", "result": 65, "unit": "%"}, {"measurement": "percentage of pAKT, TPO", "setting": "p-AKT Ser473 [3]; 20 nM, Rux-treated Cells, TPO-treated vehicle=100", "result": 65, "unit": "%"}, {"measurement": "percentage of pAKT, TPO", "setting": "p-AKT Ser473 [3]; [7]", "result": 59, "unit": "%"}, {"measurement": "percentage of pAKT, TPO", "setting": "p-AKT Ser473 [3]; 200 nM, Rux-treated Cells", "result": 53, "unit": "%"}, {"measurement": "percentage of pAKT, TPO", "setting": "p-AKT Ser473 [3]; [8]", "result": 43, "unit": "%"}, {"measurement": "percentage of pAKT, TPO", "setting": "p-AKT Ser473 [3]; 2000 nM, Rux-treated Cells", "result": 24, "unit": "%"}, {"measurement": "percentage of pS6, TPO", "setting": "pS6RP Ser235/236 [4]; [6]", "result": 66, "unit": "%"}, {"measurement": "percentage of pS6, TPO", "setting": "pS6RP Ser235/236 [4]; 20 nM, Rux-treated Cells", "result": 84, "unit": "%"}, {"measurement": "percentage of pS6, TPO", "setting": "pS6RP Ser235/236 [4]; [7]", "result": 70, "unit": "%"}, {"measurement": "percentage of pS6, TPO", "setting": "pS6RP Ser235/236 [4]; 200 nM, Rux-treated Cells", "result": 62, "unit": "%"}, {"measurement": "percentage of pS6, TPO", "setting": "pS6RP Ser235/236 [4]; [8]", "result": 36, "unit": "%"}, {"measurement": "percentage of pS6, TPO", "setting": "pS6RP Ser235/236 [4]; 2000 nM, Rux-treated Cells", "result": 42, "unit": "%"}]}
{"molecule": "C[C@H](Nc1ncnc2[nH]cnc12)c1nc2ccccc2c(=O)n1-c1c(F)cccc1F", "note": "[Compound D, (S)-2-(1-((9H-purin-6-yl)amino)ethyl)-3-(2,6-difluorophenyl)quinazolin-4(3H)-one]", "values": [{"measurement": "effect on p-AKT in MF progenitor cells", "setting": "p-AKT Ser473 [1]", "result": "inhibited"}, {"measurement": "effect on p-S6RP in MF progenitor cells", "setting": "pS6RP Ser235/236 [2]", "result": "inhibited"}]}
{"molecule": "Cc1cnc(Nc2ccc(OCCN3CCCC3)cc2)nc1Nc1cccc(S(=O)(=O)NC(C)(C)C)c1", "note": "[TG101348]", "values": [{"measurement": "maximum tolerated dose (MTD)", "setting": "[5]", "result": 680, "unit": "mg/day"}]}
{"molecule": "Palivizumab: used as an isotype control [reference compound]", "values": [{"measurement": "Percentage of total Annexin V+ cells", "setting": "Ri-1 DLBCL cells; Palivizumab 10 μg/mL", "result": "13% and 19% and 14% and 21%"}, {"measurement": "Percentage of ADCC, Palivizumab ADCC", "setting": "WIL2-S; E:T 1:1", "result": "3% and 4% and −1% and 2%"}, {"measurement": "Percentage of ADCC, Palivizumab ADCC", "setting": "WIL2-S; E:T 3:1", "result": "8% and 11% and 10% and 6% and 4% and 5% and 7%"}, {"measurement": "Percentage of ADCC, Palivizumab ADCC", "setting": "WIL2-S; E:T 30:1", "result": "31% and 37% and 36% and 34% and 39% and 25% and 29% and 24%"}]}
{"molecule": "alemtuzumab: monoclonal antibody, alternative immunotherapeutic for CLL", "values": [{"measurement": "median progression-free survival (PFS)", "setting": "CLL", "result": 4.7, "unit": "months"}]}
{"molecule": "obinutuzumab: glycoengineered, type II, anti-CD20 antibody", "values": [{"measurement": "Percentage of total Annexin V+ cells", "setting": "Ri-1 DLBCL cells; Obinutuzumab 0.1 μg/mL", "result": "30% and 36% and 35% and 37%"}, {"measurement": "Percentage of total Annexin V+ cells", "setting": "Ri-1 DLBCL cells; Obinutuzumab 1 μg/mL", "result": "45% and 50% and 49% and 46%"}, {"measurement": "Percentage of total Annexin V+ cells", "setting": "Ri-1 DLBCL cells; Obinutuzumab 10 μg/mL", "result": "54% and 49% and 56%"}, {"measurement": "Percentage of B-cell depletion in WB", "setting": "autologous B cells; obinutuzumab 0.06 ng/mL alone", "result": "−4% and −2% and 0%"}, {"measurement": "Percentage of B-cell depletion in WB", "setting": "autologous B cells; obinutuzumab 8 ng/mL alone", "result": "34% and 38% and 55% and 45%"}, {"measurement": "Percentage of B-cell depletion in WB", "setting": "autologous B cells; obinutuzumab 40 ng/mL alone", "result": "43% and 49% and 60% and 65%"}, {"measurement": "Percentage of B-cell depletion in WB", "setting": "autologous B cells; obinutuzumab 200 ng/mL alone", "result": "50% and 69%"}, {"measurement": "Percentage of B-cell depletion in WB", "setting": "autologous B cells; obinutuzumab 1000 ng/mL alone, donors S1-S4", "result": "52% and 63% and 71% and 56%"}, {"measurement": "Percentage of B-cell depletion WB", "setting": "autologous B cells; obinutuzumab 10 μg/mL, Compound B 0 nM", "result": "57% and 71% and 65%"}, {"measurement": "Percentage of ADCC, obinutuzumab ADCC", "setting": "WIL2-S; E:T 10:1", "result": "74% and 73% and 69% and 67% and 71%"}, {"measurement": "Percentage of ADCC, obinutuzumab ADCC", "setting": "WIL2-S; E:T 30:1", "result": "81% and 72% and 80% and 84% and 69% and 89% and 88%"}]}
{"molecule": "ofatumumab: monoclonal antibody, alternative immunotherapeutic for CLL", "values": [{"measurement": "median progression-free survival (PFS)", "setting": "CLL", "result": 5.8, "unit": "months"}]}
